SMILES strings stand for the structures. Active and inactive are the calls of the source. No cut-off for these calls is given here.

Assay [1] addresses T1, Tissue alpha-L-fucosidase (Bos taurus) (UniProt Q2KIM0).
T1 sequence (whole entry): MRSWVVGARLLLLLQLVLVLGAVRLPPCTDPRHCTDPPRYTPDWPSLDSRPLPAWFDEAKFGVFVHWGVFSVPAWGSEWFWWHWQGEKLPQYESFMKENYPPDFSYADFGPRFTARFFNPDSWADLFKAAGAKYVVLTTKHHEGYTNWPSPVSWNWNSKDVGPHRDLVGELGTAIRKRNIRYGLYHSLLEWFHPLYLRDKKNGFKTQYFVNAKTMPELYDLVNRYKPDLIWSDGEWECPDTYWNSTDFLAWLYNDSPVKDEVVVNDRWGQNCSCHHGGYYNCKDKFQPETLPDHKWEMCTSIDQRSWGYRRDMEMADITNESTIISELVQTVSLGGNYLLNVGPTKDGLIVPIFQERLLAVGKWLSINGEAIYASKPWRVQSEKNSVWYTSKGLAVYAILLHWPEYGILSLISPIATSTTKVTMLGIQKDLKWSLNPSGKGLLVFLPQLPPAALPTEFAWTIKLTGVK
As to the kind of experiment: Inhibitory activity against alpha-L-fucosidase in bovine brain at 1 mM.

Assay [2] can be described thus: Inhibitory activity against beta-mannosidase in Helix pomatia at 1 mM.
The subject of assay [3] is Beta-hexosaminidase (Bos taurus). As to the kind of experiment: Inhibitory activity against beta-N-acetylglucosaminidase in bovine kidney at 1 mM.
The target in assay [4] is Alpha-galactosidase (Oryza sativa Japonica Group) (UniProt Q9FXT4). As to the kind of experiment: Inhibitory activity against alpha-galactosidase in rice at 1 mM.
A further assay deals with Saccharomyces cerevisiae. Briefly: Inhibitory activity against alpha-glucosidase in yeast. The settings on record: concentration not given here.
In assay [5] the target is T2, Alpha-galactosidase (Escherichia coli K-12) (UniProt P06720).
T2 sequence (whole entry): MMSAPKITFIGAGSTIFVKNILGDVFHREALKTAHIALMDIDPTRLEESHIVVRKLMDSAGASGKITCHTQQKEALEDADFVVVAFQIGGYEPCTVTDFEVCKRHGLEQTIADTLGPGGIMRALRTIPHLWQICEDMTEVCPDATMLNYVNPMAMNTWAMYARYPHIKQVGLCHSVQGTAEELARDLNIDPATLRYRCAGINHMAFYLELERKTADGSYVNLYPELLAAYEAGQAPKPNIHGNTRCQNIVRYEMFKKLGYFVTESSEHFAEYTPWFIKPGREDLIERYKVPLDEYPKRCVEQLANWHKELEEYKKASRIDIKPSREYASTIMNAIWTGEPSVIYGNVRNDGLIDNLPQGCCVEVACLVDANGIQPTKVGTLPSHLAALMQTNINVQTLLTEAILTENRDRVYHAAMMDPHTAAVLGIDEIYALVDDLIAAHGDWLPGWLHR
As to the kind of experiment: Inhibitory activity against alpha-galactosidase in Escherichia coli at 1 mM.

Assay [6] addresses T3, Beta-galactosidase/ beta-glucuronidase (Aspergillus oryzae (strain ATCC 42149 / RIB 40)) (UniProt Q2TXB7).
T3 sequence (whole entry): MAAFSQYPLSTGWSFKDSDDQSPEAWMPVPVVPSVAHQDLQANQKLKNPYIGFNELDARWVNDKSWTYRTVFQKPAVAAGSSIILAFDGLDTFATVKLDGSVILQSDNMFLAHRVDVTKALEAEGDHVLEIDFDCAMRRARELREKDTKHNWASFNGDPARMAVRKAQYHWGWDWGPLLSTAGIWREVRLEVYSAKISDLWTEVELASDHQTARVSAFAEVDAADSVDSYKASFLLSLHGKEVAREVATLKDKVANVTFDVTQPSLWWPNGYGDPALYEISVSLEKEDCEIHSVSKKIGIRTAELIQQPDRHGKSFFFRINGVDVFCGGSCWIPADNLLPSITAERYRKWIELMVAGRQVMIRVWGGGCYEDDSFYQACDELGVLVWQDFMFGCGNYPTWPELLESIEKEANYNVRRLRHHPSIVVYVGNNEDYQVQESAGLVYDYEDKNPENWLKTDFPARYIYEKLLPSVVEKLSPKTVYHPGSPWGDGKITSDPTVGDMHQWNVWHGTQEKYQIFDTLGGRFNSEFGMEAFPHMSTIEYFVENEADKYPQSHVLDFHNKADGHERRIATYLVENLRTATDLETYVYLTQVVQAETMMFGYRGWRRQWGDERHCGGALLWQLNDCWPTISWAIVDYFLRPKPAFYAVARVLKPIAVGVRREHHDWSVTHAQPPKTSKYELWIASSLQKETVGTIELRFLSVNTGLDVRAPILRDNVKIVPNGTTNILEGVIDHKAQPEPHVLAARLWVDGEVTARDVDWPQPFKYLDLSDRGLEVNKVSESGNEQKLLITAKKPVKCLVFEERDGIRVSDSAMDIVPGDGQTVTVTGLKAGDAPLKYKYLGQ
As to the kind of experiment: Inhibitory activity against beta-galactosidase in Aspergillus oryzae at 1 mM.

Assay [7] concerns the target T4, Beta-galactosidase (Bos taurus) (UniProt Q58D55).
T4 sequence (whole entry): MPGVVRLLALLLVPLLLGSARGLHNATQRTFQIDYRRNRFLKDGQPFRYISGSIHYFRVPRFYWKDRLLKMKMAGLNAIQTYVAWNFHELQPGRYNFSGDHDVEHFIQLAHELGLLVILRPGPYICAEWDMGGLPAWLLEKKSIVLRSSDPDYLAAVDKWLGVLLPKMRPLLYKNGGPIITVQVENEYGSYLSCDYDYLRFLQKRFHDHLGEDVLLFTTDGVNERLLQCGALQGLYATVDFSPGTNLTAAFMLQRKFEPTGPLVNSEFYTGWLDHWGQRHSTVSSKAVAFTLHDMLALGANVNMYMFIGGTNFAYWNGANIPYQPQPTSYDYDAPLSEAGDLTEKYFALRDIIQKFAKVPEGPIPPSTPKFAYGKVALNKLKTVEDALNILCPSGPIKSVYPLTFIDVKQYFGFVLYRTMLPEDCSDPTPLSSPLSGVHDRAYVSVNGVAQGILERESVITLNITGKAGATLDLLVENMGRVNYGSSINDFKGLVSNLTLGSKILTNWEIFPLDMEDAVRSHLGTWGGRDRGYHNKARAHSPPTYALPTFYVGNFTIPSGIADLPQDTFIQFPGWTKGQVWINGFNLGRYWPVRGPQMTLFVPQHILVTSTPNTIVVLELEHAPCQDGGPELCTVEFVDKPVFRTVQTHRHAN
As to the kind of experiment: Inhibitory activity against beta-galactosidase in bovine liver at 1 mM.

For assay [8], the system named is Beta-hexosaminidase (Canavalia ensiformis). As to the kind of experiment: Inhibitory activity against beta-N-acetylglucosaminidase in jack beans at 1 mM.
Assay [9] deals with Glucoamylase (Aspergillus niger) (UniProt P69328). As to the kind of experiment: Inhibitory activity against amyloglucosidase in Aspergillus niger at 1 mM.
Assay [10] concerns the target T5, Exo-1,4-beta-xylosidase xlnD (Aspergillus niger) (UniProt O00089).
T5 sequence (whole entry): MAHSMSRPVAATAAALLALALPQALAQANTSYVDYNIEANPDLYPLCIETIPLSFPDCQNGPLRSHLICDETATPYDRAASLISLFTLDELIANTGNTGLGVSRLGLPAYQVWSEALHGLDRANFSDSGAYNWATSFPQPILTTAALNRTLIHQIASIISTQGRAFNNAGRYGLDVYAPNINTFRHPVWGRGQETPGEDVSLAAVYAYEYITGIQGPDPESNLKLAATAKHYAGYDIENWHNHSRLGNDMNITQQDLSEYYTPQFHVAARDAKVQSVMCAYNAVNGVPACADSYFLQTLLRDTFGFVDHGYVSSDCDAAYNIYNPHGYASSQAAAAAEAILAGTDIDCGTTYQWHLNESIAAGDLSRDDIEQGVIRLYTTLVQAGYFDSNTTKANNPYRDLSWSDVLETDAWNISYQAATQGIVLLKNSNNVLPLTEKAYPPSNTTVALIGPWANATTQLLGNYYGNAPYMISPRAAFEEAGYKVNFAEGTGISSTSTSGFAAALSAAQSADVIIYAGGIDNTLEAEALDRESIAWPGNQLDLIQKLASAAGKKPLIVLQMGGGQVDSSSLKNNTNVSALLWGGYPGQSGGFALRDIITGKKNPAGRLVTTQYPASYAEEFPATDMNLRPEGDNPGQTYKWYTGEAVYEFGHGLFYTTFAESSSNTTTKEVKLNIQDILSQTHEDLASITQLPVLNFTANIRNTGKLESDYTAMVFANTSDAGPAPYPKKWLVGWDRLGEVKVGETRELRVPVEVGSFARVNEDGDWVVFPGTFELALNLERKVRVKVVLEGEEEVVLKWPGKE
Briefly: Inhibitory activity against beta-xylosidase in Aspergillus niger at 1 mM.

Assay [11] has as its target T6, Glucoamylase 1 (Rhizopus oryzae) (UniProt P07683).
T6 sequence (whole entry): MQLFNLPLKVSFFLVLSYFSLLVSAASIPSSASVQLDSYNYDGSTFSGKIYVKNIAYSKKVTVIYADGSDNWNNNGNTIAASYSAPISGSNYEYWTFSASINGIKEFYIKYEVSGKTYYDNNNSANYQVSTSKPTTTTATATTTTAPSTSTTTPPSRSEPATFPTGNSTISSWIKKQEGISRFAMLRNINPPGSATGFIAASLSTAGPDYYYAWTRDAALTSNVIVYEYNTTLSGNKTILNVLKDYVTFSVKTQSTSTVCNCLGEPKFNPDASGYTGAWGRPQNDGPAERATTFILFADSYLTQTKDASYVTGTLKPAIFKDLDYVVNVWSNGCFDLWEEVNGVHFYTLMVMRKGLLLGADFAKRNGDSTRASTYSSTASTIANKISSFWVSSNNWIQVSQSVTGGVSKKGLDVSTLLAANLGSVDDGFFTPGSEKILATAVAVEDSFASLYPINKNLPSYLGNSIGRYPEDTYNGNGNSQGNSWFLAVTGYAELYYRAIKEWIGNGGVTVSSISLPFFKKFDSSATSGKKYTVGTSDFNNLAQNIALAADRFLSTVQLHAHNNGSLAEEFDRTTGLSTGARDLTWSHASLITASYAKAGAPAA
Briefly: Inhibitory activity against amyloglucosidase in Rhizopus mold at 1 mM.

Assay [12] deals with Alpha-galactosidase (Coffea arabica) (UniProt Q5DUH8). As to the kind of experiment: Inhibitory activity against alpha-galactosidase in coffee beans at 1 mM.
Chain of Alpha-galactosidase (Coffea arabica) (Q5DUH8 as listed by the source): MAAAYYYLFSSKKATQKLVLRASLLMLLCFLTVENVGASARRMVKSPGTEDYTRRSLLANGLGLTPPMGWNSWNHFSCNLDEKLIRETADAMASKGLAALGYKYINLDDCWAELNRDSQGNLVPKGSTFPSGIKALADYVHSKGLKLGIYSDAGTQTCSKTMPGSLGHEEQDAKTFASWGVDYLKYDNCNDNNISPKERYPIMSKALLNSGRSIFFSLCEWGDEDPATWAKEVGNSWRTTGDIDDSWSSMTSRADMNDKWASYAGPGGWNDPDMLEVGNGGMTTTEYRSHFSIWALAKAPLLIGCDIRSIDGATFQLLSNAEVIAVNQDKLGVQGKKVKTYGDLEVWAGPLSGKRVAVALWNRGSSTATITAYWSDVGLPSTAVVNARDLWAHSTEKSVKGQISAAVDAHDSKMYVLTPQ

Chain of Alpha-galactosidase (Oryza sativa Japonica Group) (Q9FXT4 whole entry): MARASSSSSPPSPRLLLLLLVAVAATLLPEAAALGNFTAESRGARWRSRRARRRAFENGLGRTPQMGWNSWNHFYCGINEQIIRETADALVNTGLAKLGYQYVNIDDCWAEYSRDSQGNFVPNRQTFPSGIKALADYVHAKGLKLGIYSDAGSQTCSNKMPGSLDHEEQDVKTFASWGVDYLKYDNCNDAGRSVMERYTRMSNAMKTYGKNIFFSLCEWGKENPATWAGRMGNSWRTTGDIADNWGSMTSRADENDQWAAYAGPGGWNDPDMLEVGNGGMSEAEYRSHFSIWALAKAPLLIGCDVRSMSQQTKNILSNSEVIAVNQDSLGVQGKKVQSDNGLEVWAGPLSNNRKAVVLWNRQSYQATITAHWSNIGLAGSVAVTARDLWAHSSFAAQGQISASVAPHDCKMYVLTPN
Chain of Glucoamylase (Aspergillus niger) (P69328 whole entry): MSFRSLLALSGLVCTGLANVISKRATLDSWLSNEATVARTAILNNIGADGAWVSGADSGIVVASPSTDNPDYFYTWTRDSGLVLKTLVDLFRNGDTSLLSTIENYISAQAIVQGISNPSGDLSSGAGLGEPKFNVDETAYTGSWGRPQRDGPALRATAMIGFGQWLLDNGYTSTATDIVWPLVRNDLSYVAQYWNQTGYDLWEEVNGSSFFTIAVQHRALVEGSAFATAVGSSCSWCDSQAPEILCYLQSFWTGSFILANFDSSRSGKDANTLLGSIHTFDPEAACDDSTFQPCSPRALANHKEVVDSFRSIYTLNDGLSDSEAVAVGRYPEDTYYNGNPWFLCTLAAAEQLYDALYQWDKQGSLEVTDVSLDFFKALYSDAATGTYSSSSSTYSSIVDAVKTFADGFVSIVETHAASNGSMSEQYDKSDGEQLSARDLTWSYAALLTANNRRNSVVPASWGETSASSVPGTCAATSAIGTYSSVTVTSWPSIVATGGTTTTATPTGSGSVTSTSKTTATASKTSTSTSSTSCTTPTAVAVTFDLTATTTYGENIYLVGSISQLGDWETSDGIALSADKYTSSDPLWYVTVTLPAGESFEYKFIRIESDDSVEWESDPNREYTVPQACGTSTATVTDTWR

For the compound `C[C@@H]1CNC(=O)C(C)(O)C1O` (some centres not stated), the outcome in assay [1], in [2], in [3], in assay [4], in assay [5] and in assay [6] was inactive. Moreover, the outcome in assay [7], in assay [8], in [9], in [10], in assay [11] and in [12] was inactive. In the assay on Saccharomyces cerevisiae, this compound registered an inhibition of 46%.

`CC(C)[C@@H]1NC(=O)C(C)(O)C1O` (some centres not stated): the result in assay [1], in assay [2], in assay [3], in assay [4], in assay [5] and in assay [6] was inactive. Moreover, the outcome in assay [7], in [8], in assay [9], in assay [10], in assay [11] and in assay [12] was inactive. The same compound gave an inhibition with Saccharomyces cerevisiae of 51%.

For the compound `C[C@@H]1NC(=O)C(C)(O)C1O` (some centres not stated), the result in [1], in assay [2], in assay [3], in assay [4], in [5] and in assay [6] was inactive. The result in assay [7], in [8], in [9], in [10], in assay [11] and in assay [12] was inactive. In the assay with Saccharomyces cerevisiae, this compound yielded an inhibition of 48%.

`CC1(O)C(=O)N2CCCC2C1O` (configuration not stated): the outcome in assay [1], in assay [2], in [3], in [4], in assay [5] and in assay [6] was inactive. In addition, the outcome in assay [7], in [8], in [9], in assay [10], in [11] and in assay [12] was inactive. Moreover, the inhibition in the assay with Saccharomyces cerevisiae worked out at 45%.

As usually defined, the inhibition is the relative decrease from the control value, in per cent.

These data come from ChEMBL document CHEMBL1148566, “Stereoselective synthesis and glycosidase inhibitory activity of 3,4-dihydroxy-pyrrolidin-2-one, 3,4-dihydroxy-piperidin-2-one and 1,2-dihydroxy-pyrrolizidin-3-one” (Bioorg Med Chem Lett, 2006).
